Assay results from patent publication US20090253622A1, “USE OF TLR3 AGONISTS FOR THE TREATMENT OF NEURODEGENERATIVE DISORDERS” (Nederlandse Organisatie voor toegepast - …, priority 2006, published 2009).
Values belong to the molecule of their own block, whether it stands above or below them.

What was measured:
TLR3 [1] = experiment: TLR expression in cultured adult human astrocytes by real-time PCR; format: cell-based
Protocol: Adult human astrocytes from post-mortem subcortical white matter samples were isolated and cultured as previously described (Bsibsi et al., J Neuropath Exp Neurol 61:1013-1021 [2002]). As determined by specific staining for cellular markers for astrocytes (glial fibrillary acidic protein; GFAP) and microglia (CD68) astrocyte cultures were essentially homogeneous; as a rule all cells expressed GFAP and none of them expressed CD68. When indicated astrocytes were stimulated with 50 μg/mL poly I:C (Amersham Pharmacia Biotech, Piscataway, N.J.) or 200 ng/mL LPS (Sigma-Aldrich, Steinheim, Germany) to activate TLR3 and TLR4, respectively. These doses were selected on the basis of maximum effects in astrocytes. It should be noted that contaminants in the commercial LPS preparation could possibly lead to some level of TLR2 activation in addition to TLR4 by the LPS preparation used but not of TLR3. When stimulated with cytokines, astrocytes were supplied with TNF-α, IFN-γ, IL-1β (each at 500 U/mL), IL-4 (at 250 U/mL), IL-6 (at 200 U/mL), IL-12 (at 50 ng/mL), IL-10 (at 20 ng/mL) and TGF-β (at 12.5 ng/mL) (PeproTech, Rocky Hill, N.Y.). Control cDNA array profiling experiments included treatment with 50 μg/mL cycloheximide for 30 min prior to and during poly I:C treatment, or with 200 U/mL IFNβ (Avonex). Endothelial cells (UVEC) were isolated from umbillical cords and cultured on gelatin-coated dishes in M199 supplemented with 20 nM HEPES, 10% human serum, 10% heat-inactivated NBCS, 150 mg/mL ECGF, 5 U/mL heparin, 100 IU/mL penicillin and […] streptomycin. Total cellular RNA was isolated using RNA-Bee™ as previously described (Bsibsi et al., [2002] supra). Subsequently, RNA was reverse transcribed into cDNA and levels of TLR1-10 and β-actin as a reference were determined by quantitative real-time PCR. The following fluorogenic molecular beacons and primers (Biolegio, Nijmegen, The Netherlands) were used: The β-actin beacon contained 5′ fluorescein VIC, and the 3′ quencher Dabcyl. […] Data were analyzed using sequence detector version 1.7 software.

[2] = target: human Toll-like receptor 3 (human) (UniProt O15455); experiment: cell-based or functional assay
TLR3 [3] = experiment: CXCL8 release by cultured human astrocytes (ELISA); format: cell-based
Protocol: Cos-7 cells (25,000 cells per well in 96-well plates) were transfected for 5 h with 768 pools of cDNA derived from human brain tumours (5 pooled tumours including meningioma, oligodendroglioma, astrocytoma grades II and IV, and medulloblastoma; NCI CGAP Brn35; Invitrogen) using lipofectamine, after which cells were thoroughly washed. Transfection with green-fluorescent protein-encoding cDNA was used as an internal control for transfection efficiencies. After continued culture of the transfected cells for 48 h, 75 μL of each culture supernatant was harvested and added to cultured human astrocytes seeded at 1,000 cells per well in 75 μL. After 48 h of culture, supernatants were harvested and evaluated for CXCL8 release using ELISA. Stimulation of astrocytes with poly I:C served as positive controls for CXCL8 release in all cases, non-transfected Cos 7 culture supernatants as negative controls.
(§1) Purified recombinant stathmin was exposed to two different conditions that differentially affect the extent of helix formation within the protein chain. One part of the protein preparation was exposed to 5% trifluoroacetic acid (TFA) in water for 1 h at 37° C., strongly acidic conditions that tend to disrupt an alpha helix. In parallel, another part was exposed for 1 h at 37° C. to 5% of the helix-promoting solvent trifluoroethanol (TFE) in phosphate-buffered saline (PBS). After exposure to these different conditions, both protein samples were extensively dialysed for 48 h against several changes of PBS. Next, the samples were analyzed by […] circular dichroism spectroscopy that allows calculation of helical content on the basis of elipticity in the absorption of circularly polarized light. In both cases, another part of the dialyzed sample was tested in parallel for induction of TLR3-mediated release of CXCL8 (IL-8) in human astrocytes as described elsewhere in this application.

[4] = tested on: neurons in organotypic human brain slice cultures; experiment: Neuronal survival in organotypic human brain slice cultures (calcein-AM / ethidium homodimer-1); format: cell-based; conditions: slices cultured 1 week; p<0.03
Protocol: Organotypic human brain slice cultures were set up and analyzed as previously described (Verwer et al., FASEB J. 16:54-60 [2002]). Briefly, tissue blocks were collected from different post-mortem cortical samples and 200-μm slices were produced. These slices were cultured for 1 week in Poly I:C- or LPS-conditioned astrocyte media that were obtained upon culturing astrocytes in the presence of either 50 μg/mL poly I:C or 200 ng/mL LPS. As a control untreated astrocyte-conditioned media from the same donor was used. All astrocyte-conditioned media were harvested after 48 h and stored at −20° C. Viability of neurons in the slice cultures was evaluated using calcein-AM and ethidium homodimer-1 (molecular Probes, Eugene, Oreg.). A Zeiss 410 Invert confocal laser scanning microscope was used to inspect the slices and quantify staining.

[5] = tested on: astrocytes from TLR3-deficient mice; experiment: IL-6 release by astrocytes from TLR3-deficient mice (ELISA); format: cell-based; conditions: TLR3-deficient mouse astrocytes, 48 h
Protocol: (§2) Astrocytes were cultured in poly L-lysine coated 96 well-flat-bottom plates at 1×10^4 cells per well in 100 l DMEM/HAM-F10 medium containing 10% FCS and antibiotic supplements for 24 h to obtain post-confluent cultures. Recombinant human stathmin was next added to astrocytes, and parallel control stimuli were performed with either poly I:C, an established TLR3 agonist, or ultrapure lipopolysaccharides, established TLR4 agonists. After addition of these stimuli astrocytes were incubated for another 48 h. Astrocyte culture supernatants were subsequently collected and using a commercial ELISA kit levels of IL-6 were determined, as a marker for TLR-mediated activation of murine astrocytes.

[6] = tested on: experimental autoimmune encephalomyelitis; conditions: mice treated 5, 7 and 9 days after induction of the disease; cited from earlier work
human adult astrocytes = experiment: cDNA array profiling of cytokine, chemokine and growth factor genes in human adult astrocytes; format: cell-based
Protocol: Adult human astrocytes from post-mortem subcortical white matter samples were isolated and cultured as previously described (Bsibsi et al., J Neuropath Exp Neurol 61:1013-1021 [2002]). […] When indicated astrocytes were stimulated with 50 μg/mL poly I:C (Amersham Pharmacia Biotech, Piscataway, N.J.) or 200 ng/mL LPS (Sigma-Aldrich, Steinheim, Germany) to activate TLR3 and TLR4, respectively. […] It should be noted that contaminants in the commercial LPS preparation could possibly lead to some level of TLR2 activation in addition to TLR4 by the LPS preparation used but not of TLR3. When stimulated with cytokines, astrocytes were supplied with TNF-α, IFN-γ, IL-1β (each at 500 U/mL), IL-4 (at 250 U/mL), IL-6 (at 200 U/mL), IL-12 (at 50 ng/mL), IL-10 (at 20 ng/mL) and TGF-β (at 12.5 ng/mL) (PeproTech, Rocky Hill, N.Y.). […] Endothelial cells (UVEC) were isolated from umbillical cords and cultured on gelatin-coated dishes in M199 supplemented with 20 nM HEPES, 10% human serum, 10% heat-inactivated NBCS, 150 mg/mL ECGF, 5 U/mL heparin, 100 IU/mL penicillin and […] streptomycin.
Analysis of the mRNA profile of astrocytes was performed by hybrid selection of ^32P-labeled cDNA on Clontech human cytokine/chemokine Atlas® arrays as previous described (Meeuwsen et al., Glia 43:243-253 [2003]). Hybridization signals for each of the 268 cytokine, chemokine and growth factor (receptor) genes were calculated as the mean of duplicate measurements, corrected for background intensity and quantified using software provided by the manufacturer. Relative expression was calculated by dividing these hybridization signals by the mean signal for all nine housekeeping reference genes on the corresponding array.
Gene profiling was performed using astrocytes from four different control donors.
Astrocytes were isolated from post mortem human brain tissue samples and cultured under conditions as described elsewhere in this application. One part of the culture was stimulated with 50 μg/ml stathmin, the second with 50 μg/ml poly I:C and a third was left untreated to served as a reference control. Following another 48 h RNA was isolated from each culture and ^32P-labeled cDNA was prepared by reverse transcription. Subsequent hybrid selection of these ^32P-labeled cDNA samples was performed on Clontech Atlas® arrays containing selective probes for 268 cytokines, chemokines and growth factors, and various receptors for these mediators. All hybridization signals were calculated as the mean of duplicate measurements, corrected for background intensity and quantified using software provided by the manufacturer. Relative signal strength was next calculated by dividing these averaged hybridization signals by the mean signal for all nine housekeeping reference genes that were also present on each array as a reference.

TLR3 [7] = experiment: IL-6 release by astrocytes from wild-type mice (ELISA); format: cell-based; conditions: wild-type mouse astrocytes, 48 h
Protocol: as §2

[8] = Circular dichroism spectroscopy, helical content; format: physicochemical; conditions: pre-treated 1 h at 37° C., dialysed 48 h against PBS
Protocol: as §1, with “[…] […]” for “In parallel, another part was exposed for 1 h at 37° C. to 5% of the helix-promoting solvent trifluoroethanol (TFE) in phosphate-buffered saline (PBS). After exposure to these different conditions, both protein samples were extensively dialysed for 48 h against several changes of PBS.”

[9] = agonist-treated vs untreated astrocytes, 48 h

Molecule: OO [H2O2]
induction of TLR3 expression (in words) (TLR3 [1]): selective induction of TLR3

Pearson correlation coefficient (r) between gene expression profiles (268 genes) of human astrocytes stimulated with 50 µg/ml stathmin or 50 µg/ml poly I:C [2]: 0.951
TLR3-mediated release of CXCL8 (IL-8) in human astrocytes: TFE-treated stathmin (37% alpha helix) against TFA-treated stathmin (12% alpha helix) [2]: 3 fold
Molecule: recombinant human stathmin (from UniProt P16949 1-149) (ligand)

ERBB4 receptor protein-tyrosine kinase, ratio of expression (human adult astrocytes; [9]): 0.43
VEGF receptor 2, ratio of expression (human adult astrocytes; [9]): 0.22
Molecule: poly I:C
release levels of CXCL8 (TLR3 [3]; human adult astrocyte cultures): around 200 ng/mL
survival of neurons [4]: promoted neuronal survival equally well
IL-6 release [5]: fully abrogated
disease development in EAE [6]: almost completely blocks subsequent disease development
change in expression of genes encoding immune mediators and growth factors (human adult astrocytes; 50 μg/ml, 48 h): comprehensive and marked change in expression
Jag1, downregulation factor (human adult astrocytes; 48 h): 1.96
p40 subunit of IL-12 and IL-23, down-regulation factor (human adult astrocytes; 48 h): ~2
Smo, ratio of expression (human adult astrocytes; [9]): 0.48
induction of chemokines CXCL8, CXCL2 and CCL3 (human adult astrocytes; astrocytes): strongly induced
induction of IL-9 (human adult astrocytes; astrocytes, 48 h): 7.5 fold
induction of IL-10 (human adult astrocytes; astrocytes, 48 h): 2.3 fold
induction of IL-11 (human adult astrocytes; astrocytes, 48 h): 3.2 fold
induction of TNF-α (human adult astrocytes; astrocytes, 48 h): induced
induction of tumour necrosis factor-stimulated gene 6 (TSG-6) (human adult astrocytes; astrocytes, 48 h): over 10 fold
induction of CCL4, CXCL6, CCL5, CXCL9 and CCL2 (human adult astrocytes; astrocytes, to a lesser extent): leads to induction
IL-6 release (TLR3 [7]): marked IL-6 release

Molecule: TGF-β: anti-inflammatory cytokine, 12.5 ng/mL
induction of TLR3 expression (in words) (TLR3 [1]): No induction of TLR3

B1: TFA-treated sample: purified recombinant stathmin exposed to 5% TFA in water for 1 h at 37° C. and dialysed against PBS (protein, UniProt P16949 2-149, looked up)
Stathmin: ASSDIQVKELEKRASGQAFELILSPRSKESVPEFPLSPPKKKDLSLEEIQKKLEAAEERRKSHEAEVLKQLAEKREHEKEVLQKAIEENNNFSKMAEEKLTHKMEANKENREAQMAAKLERLREKDKHIEEVRKNKESKDPADETEAD
modifications: TFA-treated
notes: purified recombinant stathmin exposed to 5% TFA in water for 1 h at 37° C. and dialysed against PBS
alpha helical content [8]: 12%

B2: TFE-treated sample: purified recombinant stathmin exposed to 5% TFE in PBS for 1 h at 37° C. and dialysed against PBS (protein, UniProt P16949 2-149, looked up)
Stathmin: B1 Stathmin
modifications: TFE-treated
notes: purified recombinant stathmin exposed to 5% TFE in PBS for 1 h at 37° C. and dialysed against PBS
activity in activating astrocytes (CXCL8/IL-8 release), TFE-treated relative to TFA-treated sample (TLR3 [3]; on weight basis): about 3 fold
alpha helical content [8]: 37%

B3: IL-10: anti-inflammatory cytokine, 20 ng/mL (protein, UniProt P22301 19-178, looked up)
Interleukin-10: SPGQGTQSENSCTHFPGNLPNMLRDLRDAFSRVKTFFQMKDQLDNLLLKESLLEDFKGYLGCQALSEMIQFYLEEVMPQAENQDPDIKAHVNSLGENLKTLRLRLRRCHRFLPCENKSKAVEQVKNAFNKLQEKGIYKAMSEFDIFINYIEAYMTMKIRN
induction of TLR3 expression (in words) (TLR3 [1]): No induction of TLR3
